Results as given in patent US20050009772A1, “Methods and compositions for the treatment of glaucoma and other retinal diseases” (The Regents of the University of California, priority 2003, published 2005).
Entries after “also recorded” stand apart in the source; their conditions may differ.

Tests used:
retinal ganglion cells = test: 2DG administration in the animal model of glaucoma; format: in vivo; settings: animal model of glaucoma employed herein
Protocol: Lan et al., NeuroReport 14:2369-72 (2003). In the hands of the, present inventors, however, 2DG administration was ineffective in protecting retinal ganglion cells in the animal model of glaucoma employed herein. Thus, confirmation of efficacy in a relevant animal model is required before any actual conclusions can be drawn.
Rats were anesthetized with intramuscular injections of 0.8 ml/kg of the anesthetic cocktail described above. A previously published procedure was modified to produce chronic moderately elevated IOP unilaterally, while the untreated contralateral eye served as the comparative control.40 Animals were injected intracamerally with 10 μl of 35% India ink (Becton Dickinson, Cockeysville, Md.) in 0.01 M PBS after removing a similar volume of aqueous. At the end of the procedure, Tobrex ophthalmic ointment (tobramycin 0.3%; Alcon, Fort Worth, Tex.) was applied topically. Five days after intracameral injection of India ink, a dark band at the limbus was noted due to the aggregation of carbon particles in the trabecular meshwork.38 After anesthesia, approximately 200 laser burns were delivered ab externo to the pigmented trabecular band at laser settings of 200 μm diameter, 200 mW power and 0.2 seconds duration. Three weeks after the first laser treatment, another trabecular laser photocoagulation was performed without further injection of ink.

[1] = test system: TUNEL positive cells in the RGCL; test: TUNEL analysis of RGCL after 1 week of IOP elevation (Experiment 3); format: in vivo, rat; settings: elevated IOP retinas, 1 week; quercetin = co-administered with GGA
Protocol: Experiment 3 was performed to investigate the inhibition of apoptosis with GGA administration after 1 week of IOP elevation (n=56).
Rats were anesthetized with intramuscular injections of 0.8 ml/kg of the anesthetic cocktail described above. […] At the end of the procedure, Tobrex ophthalmic ointment (tobramycin 0.3%; Alcon, Fort Worth, Tex.) was applied topically. Five days after intracameral injection of India ink, a dark band at the limbus was noted due to the aggregation of carbon particles in the trabecular meshwork.38 After anesthesia, approximately 200 laser burns were delivered ab externo to the pigmented trabecular band at laser settings of 200 μm diameter, 200 mW power and 0.2 seconds duration. Three weeks after the first laser treatment, another trabecular laser photocoagulation was performed without further injection of ink.
Four-μm thick paraffin embedded sections along the vertical meridian of the optic nerve head were collected and a minimum of 6 retinal sections (8 μm apart) per eyeball was used for counting the number of TUNEL positive cells in the RGCL. Only full length and undamaged retinal sections without oblique orientation were used. The procedures described in the ApopTag Peroxidase In Situ Apoptosis Detection Kit (Intergen Co., Purchase, N.Y.) were followed and diaminobenzidine (Sigma, St. Louis, Mo.) was used as a color substrate. Counting was performed by two masked investigators with light microscopy, and averaged.

HSP72 [2] = test: Quantitative immunohistochemical analysis of HSP72 in the RGCL after 1 week of IOP elevation (Experiment 3); format: in vivo, rat; settings: quercetin = co-administered with GGA
Protocol: TdT-mediated biotin-dUTP nick end labeling (TUNEL) and immunohistochemical analysis for HSP72 and HSC70 were performed.
Animals were deeply anesthetized with intramuscular injections of 0.8 ml/kg of a cocktail of 5 ml ketamine (100 mg/ml), 2.5 ml xylazine (20 mg/ml), 1.0 ml acepromazine (10 mg/ml), and 1.5 ml normal saline. Then they were transcardially perfused with 4% paraformaldehyde in 0.1 M phosphate buffer. The enucleated eyeballs were immersed in fixative for 1 hour, bisected and post-fixed overnight. The eyes were embedded in paraffin and sectioned at a four-μm thickness along the vertical meridian through the optic nerve head. After deparaffinization and hydration, a species-specific Vectastain ABC kit (Vector Laboratories, Inc., Burlingame, Calif.) was chosen to match the species of primary antibody and the manufacturer's procedures were followed. The tissue sections were incubated with blocking serum solution in PBS for 1 hour. This was followed by incubation with primary antibody at 4° C overnight. The antibodies were mouse monoclonal antibody against HSP72 (1:500; StressGen Biotechnologies Corp., Victoria, British Columbia, Canada), goat polyclonal antibody against HSP72 (1:1000; Santa Cruz Biotechnology, Inc., Santa Cruz, Calif.) or rat monoclonal antibody against HSC70 (1:200; StressGen). Antigen-antibody complexes were detected by an avidin-biotin-peroxidase technique (Vectastain ABC Kit; Vector Laboratories). Diaminobenzidine (DAB) was used to produce a brown color in the target tissue and the slides were permanently mounted. As a negative control, alternate retinal section was incubated with blocking solution by replacing the primary antibody or with anti-rabbit secondary antibody by replacing the original secondary antibody.
Immunohistochemical staining was analyzed quantitatively with a computer-assisted image processing unit (Image-Pro Plus software, Media Cybernetics, Silver Spring, Md.) and the “count-measure” function. Images of immuno-stained sections were captured with a digital camera (Cool snap, RS Photometric, Tucson, Ariz.) attached to the microscope (Axio plan, Carl Zeiss, Oberkochen, Germany) at 630× magnification under oil immersion. The system was calibrated according to the supplier's manual before the analysis. For each digital image, all individual cells in the RGCL were marked by a masked examiner and the optical density of each cell was measured. The relative intensities of cells in the RGCL were measured and averaged (±SEM) to yield a single value representing one retina.

[3] = test system: retinal ganglion cells (RGCs); test: Density of DTMR-labeled RGCs in rat glaucoma model (Experiment 2); format: in vivo; settings: retinas with IOP elevation, 5 weeks; quercetin = co-administered with GGA
Protocol: GGA was then given twice a week at the same dose until euthanasia. Sustained elevation of intraocular pressure (IOP) was maintained by performing trabecular laser photocoagulation three weeks after the first photocoagulation. […] IOP and body weight were measured once a week. […] Rats were anesthetized with intramuscular injections of 0.8 ml/kg of the anesthetic cocktail described above. A previously published procedure was modified to produce chronic moderately elevated IOP unilaterally, while the untreated contralateral eye served as the comparative control.40 Animals were injected intracamerally with 10 μl of 35% India ink (Becton Dickinson, Cockeysville, Md.) in 0.01 M PBS after removing a similar volume of aqueous. At the end of the procedure, Tobrex ophthalmic ointment (tobramycin 0.3%; Alcon, Fort Worth, Tex.) was applied topically. Five days after intracameral injection of India ink, a dark band at the limbus was noted due to the aggregation of carbon particles in the trabecular meshwork.38 After anesthesia, approximately 200 laser burns were delivered ab externo to the pigmented trabecular band at laser settings of 200 μm diameter, 200 mW power and 0.2 seconds duration. Three weeks after the first laser treatment, another trabecular laser photocoagulation was performed without further injection of ink. […] A cross section of the optic nerve was made with the needle knife through the opening of the optic nerve sheath, with care not to damage the adjacent blood supply. DTMR crystals were applied to the proximal cut surface of the optic nerve to label RGCs by fast retrograde axonal transport. After euthanasia and enucleation, the retinas were dissected and flattened with four radial cuts (superotemporal, inferotemporal, superonasal, and inferonasal). They were placed with vitreal side up on glass slides, dried in the dark at room temperature overnight and mounted. The retinas were examined with a fluorescence microscope (Axioplan; Carl Zeiss, Oberkochen, Germany) equipped with a filter that permits visualization of rhodamine fluorescence (excitation filter BP 546, barrier filter LP590; Carl Zeiss). The counting of RGCs was conducted by 2 examiners in a masked fashion. […] Each rectangular area measured 0.475 mm×0.362 mm and the total counted area corresponded to approximately 3.1% of each total retinal area. Data are expressed as number of RGCs per mm2.

HSP72 [4] = test: Western blot for HSP72 in enriched RGC fraction after systemic administration of GGA (Experiment 1); format: in vivo, rat; settings: GGA 200 mg/kg co-administered with quercetin 4 mg/kg daily i.p., 7 days
Protocol: Experiment 1 was performed to evaluate the expression of HSP72 and HSC70 in RGCs after systemic administration of GGA with Western blot analysis and immunohistochemistry. For Western blotting, twelve rats were equally divided into 6 groups. Three groups of animals were given intraperitoneal injections of GGA 200 mg/kg daily and were euthanized after 1-, 3- or 7 days of administration of GGA. Three control groups were intraperitoneally administered 1) saline-vehicle daily for 7 days; 2) GGA with 4 mg/kg of quercetin (Sigma, St. Louis, Mo.) daily for 7 days; and 3) untreated animals. Enriched RGC fraction was harvested from 2 retinas of each group and used for Western blot analysis. The same experiment for isolation of RGCs and Western blotting was repeated with the other 2 retinas-from each group.
A solution of 80 mg/mL GGA was prepared in saline (Balanced salt solution; Alcon Laboratories, Inc., Fort Worth, Tex.) and emulsified for one hour in an ultrasonic generator (Branson Ultrasonic Corp., Danbury, Conn.) immediately before administration. Intraperitoneal injections of GGA were given at a dose of 200 mg/kg. Saline-vehicle was prepared and administered in the same fashion in vehicle-treated control groups.
A previously described method was modified to partially purify RGCs from other retinal cells in rat retinas.38 Briefly, two dissected rat retinas from each subgroup were washed in 2.5 ml of calcium- and magnesium-free phosphate buffered saline (PBS) at pH 7.4, and incubated in 1.25 ml of PBS containing 0.5 mg/ml trypsin and 0.01% deoxyribonuclease for 15 minutes at 37° C. This was followed by washing the retinas twice in 2.5 ml of minimal essential medium (MEM) containing 10% (vol/vol) fetal bovine serum. The retinas were subsequently washed in 2.5 ml of MEM twice and dissociated in 3 ml of MEM. The cell suspension was then mixed with 1.5 ml of 30% metrizamide (ICN Biomedicals, Inc., Aurora, Ohio) in MEM to a final concentration of 10 metrizamide. This mixture was then overlaid with 5% metrizamide in MEM, and the gradient was centrifuged at 4500 rpm (HB-4; Sorvall Instruments, Newtown, Conn.) for 25 minutes at 4° C. The cells in the 5% to 10% interface were collected. and washed in 25 ml of cold MEM. The washed cells were pelleted by centrifugation at 250×g for 10 minutes (Juan 3000C centrifuge, Winchester, Va.). The cells were then resuspended in 400 μl of MEM buffer, and the protein concentration in the cell suspension was measured with a bicinchoninic acid (BCA) protein assay kit (Pierce, Rockford, Ill.).
Western blot analysis was performed according to the procedure described by Towbin et al.39 Aliquots of 20 μg of protein from enriched RGCs were separated on a 12% SDS-polyacrylamide minigel (Bio-Rad, Hercules, Calif.) and transferred to the membrane (Immunobilon-P; Millipore Corporation, Bedford, Mass.). The membrane was blocked by incubation in 0.1% Tween-20 in 100 mM Tris-buffered saline containing 10% nonfat dried milk for 1 hour. The membranes were incubated with mouse monoclonal antibody against HSP72 (1:1000; StressGen Biotechnologies Corp., Victoria, British Columbia, Canada) or with rat monoclonal antibody against HSC70 (1:1000; StressGen) overnight and then biotinylated rabbit anti-mouse secondary antibody (1:500; Amersham Pharmacia Biotech, Inc., Piscataway, N.J.) or biotinylated goat anti-rat secondary antibody (1:500; Amersham Pharmacia) for 1 hour. This was followed by incubation with streptavidin-conjugated horseradish peroxidase (1:2000; Amersham Pharmacia) for 40 minutes. The immunoreactive bands were detected by chemiluminescence with an enhanced chemiluminescence Western blot reagent (Amersham Pharmacia).

SMILES	protection of retinal ganglion cells (retinal ganglion cells)	effect on number of TUNEL positive cells (in words) [1]	HSP72 expression (immunoreactive intensity) in the RGCL (HSP72 [2]; control (normal IOP) retinas vs vehicle-alone controls)	HSP72 expression (immunoreactive intensity) in the RGCL (HSP72 [2]; retinas with IOP elevation, 1 week)	effect on density of DTMR-labeled RGCs (in words) [3]	expression of HSP72 in RGCs (immunoblot) (HSP72 [4])
OCC1OC(O)CC(O)C1O [2DG, 2-deoxy-D-gluycose]	ineffective	–	–	–	–	–
O=c1c(O)c(-c2ccc(O)c(O)c2)oc2cc(O)cc(O)c12 [quercetin]	–	reversed	abolished; also recorded: diminished	significantly reduced; also recorded: abolished	abolished the protective effect	inhibited
